Results taken from US10918610B2, “Compounds and methods of promoting myelination” (Case Western Reserve University, priority 2017, dated 2021).

Experiments:
EBP = test: Analysis of mouse brain sterol levels in vivo; design: species or system C57-BL6 mice; details: mice, 10 mg/kg once daily for 3 days, versus vehicle
Procedure: Ten to twelve week old male C57BL/6 mice were injected with Cis-N-cyclohexyl-N-ethyl-3-(3-chloro-4-cyclohexylphenyl)prop-2-enylamine dissolved in sterile saline daily for three days. Mice were anaesthetized with isoflurane and perfused with phosphate buffered saline to remove blood from the brain. Brains were collected and flash frozen using liquid nitrogen. The samples were pulverized and 50-100 milligrams of tissue were collected for further processing. A modified Folch protocol was used for extraction of sterols. Briefly, samples were resuspended in a 2:1 chloroform/methanol mixture and homogenized. Cell debris was removed by centrifugation at 4000 g for 10 min. The solution was dried under air and resuspended in hexane with a cholesterol-D7 standard and dried again. Lipids were derivatized with 70 al of bis(trimethylsilyl)trifluoroacetamide; 2 μls were injected and analyzed by GC/MS as described above.
Cis-N-cyclohexyl-N-ethyl-3-(3-chloro-4-cyclohexylphenyl)prop-2-enylamine was dissolved in a vehicle solution containing 80/10/10 saline/DMSO/Kolliphor. C57-BL6 mice were injected at 10 mg/kg once daily for 3 days with either vehicle (DMSO) or Cis-N-cyclohexyl-N-ethyl-3-(3-chloro-4-cyclohexylphenyl)prop-2-enylamine (n=5). (5 mice/condition). After 3 days, mice were anesthetized with isoflurane and perfused with phosphate buffered saline to remove blood from the brain. […] Lipids were derivatized with 70 ul of bis(trimethylsilyl) trifluoroacetamide; Samples were analyzed in […] using electron impact ionization; ion fragment abundances were integrated. 2 ul was analyzed by gas chromatography/mass spectrometry using an Agilent 5973 Network Mass Selective Detector equipped with a 6890 gas chromatograph system and a HP-5MS capillary column ([…]). Samples were analyzed in full scan mode using electron impact ionization; ion fragment peaks were integrated to calculate sterol abundance, and quantitation was relative to cholesterol-d7. The following ion fragments were used to quantitate each metabolite: zymostenol (458), zymosterol (456), Desmosterol. […]

corpus callosum = test: LPC-induced demyelination in corpus callosum, DTI-MRI fractional anisotropy; type: in vivo, Sprague-Dawley male rats; details: rats, 20 mg/kg intraperitoneal QD
Procedure: In total, 30 Sprague-Dawley male rats (˜200-300 g) were infused with lysophosphatidylcholine (LPC) on the ipsilateral side and with vehicle for LPC on the contralateral side of the corpus callosum in order to induce demyelination. […] Cis-N-cyclohexyl-N-ethyl-3-(3-chloro-4-cyclohexylphenyl)prop-2-enylamine was diluted to a final concentration of 2.5% ETOH and 2.5% Kolliphor in Saline. DTI-MRI was used as a primary method to quantify the demyelinated lesion and to assess the organization of white matter in corpus callosum over time, on days 3, 10 and 15. Day 3 served as a baseline followed by repeated analyses during the therapeutic period. On day 15, the animals were euthanized and tissue samples collected. The amount of demyelination and the extent of neuronal loss were analyzed by histological analysis of MBP and Nissl substance, respectively, in corpus callosum.
Demyelination in corpus callosum was induced by stereotactic infusion of lysophospatidylcholine (LPC, Santa Cruz, Calif., USA) directly to the target tissue. First, rats were anesthetized with 5% isoflurane (in 70% N20 and 30% 02; flow 300 ml/min) and placed in a stereotactic frame. […]
Analgesics were administered during and after the surgery. […] Rats were carefully monitored by laboratory personnel twice a day and any rats prematurely fulfilling the criteria for humane end-points were euthanized during the study. […]

## CCN(C/C=C\c1ccc(C2CCCCC2)c(Cl)c1)C1CCCCC1 [Cis-N-cyclohexyl-N-ethyl-3-(3-chloro-4-cyclohexylphenyl)prop-2-enylamine]
EBP
  brain levels of desmosterol: decreased
  brain levels of zymostenol: increased
  brain levels of zymosterol: increased
Corpus callosum; Day 15
  ipsilateral FA measurements, difference between the groups at Day 15: trend in improvement
Corpus callosum; days 3-15 after LPC infusion, versus vehicle
  fractional anisotropy (FA) value of the ipsilateral side (FIG. 8B): noticeable recovery of the FA value
